Experimental data published in PubChem BioAssay (NCI).
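A five-concentration, 48-hour dose response in 96-well plates underlies each endpoint, interpolated linearly between surrounding concentrations. TGI marks complete inhibition of growth.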 Where a SMILES comes first, the peptide text is derived from it. Bridges are numbered along the chain shown (N, C = ends). [ ]: non-standard residue; d: D form. The star is where a group is joined. PhAc = O=C(Cc1ccccc1)*

Experiments:
Experiment in all cases: NCI tumour cell line growth inhibition, 48 h
[1] = system: SNB-19 CNS
[2] = system: MDA-N
[3] = system: NCI-H23 lung
[4] = system: ACHN renal
[5] = system: HOP-62 NSCLC
[6] = system: MDA-MB-231 breast
[7] = system: MOLT-4 leukemia
[8] = system: MCF7 breast
[9] = system: 786-0 renal
[10] = system: NCI-H460 lung
[11] = system: SK-MEL-28 melanoma
[12] = system: OVCAR-4 ovarian
[13] = system: TK-10 renal
[14] = system: HCT-116 colon
[15] = system: HOP-92 NSCLC
[16] = system: UACC-62 melanoma
[17] = system: SK-MEL-5 melanoma
[18] = system: RXF 393 renal
[19] = system: SF-539 CNS
[20] = system: COLO 205 colon
[21] = system: A549 NSCLC
[22] = system: HT29 colon
[23] = system: SN12C renal
[24] = system: SF-268 CNS
[25] = system: MALME-3M melanoma
[26] = system: SR leukemia
[27] = system: T-47D breast
[28] = system: SF-295 CNS
[29] = system: M14 melanoma
[30] = system: SK-OV-3 ovarian
[31] = system: SK-MEL-2 melanoma
[32] = system: OVCAR-5 ovarian
[33] = system: HCT-15 colon
[34] = system: A498 renal
[35] = system: CCRF-CEM leukemia
[36] = system: OVCAR-8 ovarian
[37] = system: HCC-2998 colon
[38] = system: DU-145 prostate
[39] = system: HL-60(TB) leukemia
[40] = system: CAKI-1 renal
[41] = system: KM12 colon
[42] = system: IGROV1 ovarian
[43] = system: MDA-MB-435
[44] = system: PC-3 prostate
[45] = system: UACC-257 melanoma
[46] = system: NCI/ADR-RES ovarian
[47] = system: OVCAR-3 ovarian
[48] = system: EKVX NSCLC
[49] = system: LOX IMVI melanoma
[50] = system: SW-620 colon
[51] = system: HS 578T breast
[52] = system: K-562 leukemia
[53] = system: RPMI-8226 leukemia
[54] = system: U251 CNS
[55] = system: UO-31 renal
[56] = system: SNB-75 CNS
[57] = system: NCI-H522 lung
[58] = system: NCI-H226 lung
[59] = system: BT-549 breast

O=C(Cc1ccccc1)N[C@@H]1COC(=O)[C@@H]2CCCN2C(=O)[C@@H]2CCCN2C1=O (PhAc-[dS]-Pro-Pro; ester 1-C)
TGI [1]: > 100 µM | TGI [2]: > 100 µM | TGI [3]: > 100 µM | TGI [4]: > 100 µM | TGI [5]: > 100 µM | TGI [6]: > 100 µM | TGI [7]: > 100 µM | TGI [8]: > 100 µM | TGI [9]: > 100 µM | TGI [10]: > 100 µM | TGI [11]: > 100 µM | TGI [12]: > 100 µM | TGI [13]: > 100 µM | TGI [14]: > 100 µM | TGI [15]: > 100 µM | TGI [16]: > 100 µM | TGI [17]: > 100 µM | TGI [18]: > 100 µM | TGI [19]: > 100 µM | TGI [20]: > 100 µM | TGI [21]: > 100 µM | TGI [22]: > 100 µM | TGI [23]: > 100 µM | TGI [24]: > 100 µM | TGI [25]: > 100 µM | TGI [26]: > 100 µM | TGI [27]: > 100 µM | TGI [28]: > 100 µM | TGI [29]: > 100 µM | TGI [30]: > 100 µM | TGI [31]: > 100 µM | TGI [32]: > 100 µM | TGI [33]: > 100 µM | TGI [34]: > 100 µM | TGI [35]: > 100 µM | TGI [36]: > 100 µM | TGI [37]: > 100 µM | TGI [38]: > 100 µM | TGI [39]: > 100 µM | TGI [40]: > 100 µM | TGI [41]: > 100 µM | TGI [42]: > 100 µM | TGI [43]: > 100 µM | TGI [44]: > 100 µM | TGI [45]: > 100 µM | TGI [46]: > 100 µM | TGI [47]: > 100 µM | TGI [48]: > 100 µM | TGI [49]: > 100 µM | TGI [50]: > 100 µM | TGI [51]: > 100 µM

CCC(=O)C1(c2ccccc2)CCN(C)CC1
TGI [1]: > 100 µM | TGI [2]: > 100 µM | TGI [3]: > 100 µM | TGI [4]: > 100 µM | TGI [52]: > 100 µM | TGI [5]: > 100 µM | TGI [7]: > 100 µM | TGI [8]: > 100 µM | TGI [9]: > 100 µM | TGI [10]: > 100 µM | TGI [11]: > 100 µM | TGI [12]: > 100 µM | TGI [13]: > 100 µM | TGI [14]: > 100 µM | TGI [15]: > 100 µM | TGI [17]: > 100 µM | TGI [18]: > 100 µM | TGI [20]: > 100 µM | TGI [21]: > 100 µM | TGI [22]: > 100 µM | TGI [24]: > 100 µM | TGI [25]: > 100 µM | TGI [26]: > 100 µM | TGI [27]: > 100 µM | TGI [28]: > 100 µM | TGI [29]: > 100 µM | TGI [30]: > 100 µM | TGI [53]: > 100 µM | TGI [32]: > 100 µM | TGI [33]: > 100 µM | TGI [34]: > 100 µM | TGI [35]: > 100 µM | TGI [36]: > 100 µM | TGI [37]: > 100 µM | TGI [38]: > 100 µM | TGI [39]: > 100 µM | TGI [40]: > 100 µM | TGI [41]: > 100 µM | TGI [42]: > 100 µM | TGI [54]: > 100 µM | TGI [44]: > 100 µM | TGI [45]: > 100 µM | TGI [46]: > 100 µM | TGI [55]: > 100 µM | TGI [48]: > 100 µM | TGI [50]: > 100 µM | TGI [56]: > 100 µM | TGI [51]: > 100 µM

CCCCCN1CCN(c2ncccn2)CC1
TGI [1]: > 100 µM | TGI [2]: > 100 µM | TGI [3]: > 100 µM | TGI [4]: > 100 µM | TGI [52]: > 100 µM | TGI [5]: > 100 µM | TGI [6]: > 100 µM | TGI [57]: > 100 µM | TGI [8]: > 100 µM | TGI [9]: > 100 µM | TGI [11]: > 100 µM | TGI [12]: > 100 µM | TGI [13]: > 100 µM | TGI [14]: > 100 µM | TGI [15]: > 100 µM | TGI [16]: > 100 µM | TGI [17]: > 100 µM | TGI [18]: > 100 µM | TGI [19]: > 100 µM | TGI [20]: > 100 µM | TGI [21]: > 100 µM | TGI [22]: > 100 µM | TGI [23]: > 100 µM | TGI [24]: > 100 µM | TGI [25]: > 100 µM | TGI [26]: > 100 µM | TGI [27]: > 100 µM | TGI [28]: > 100 µM | TGI [29]: > 100 µM | TGI [53]: > 100 µM | TGI [31]: > 100 µM | TGI [32]: > 100 µM | TGI [33]: > 100 µM | TGI [34]: > 100 µM | TGI [35]: > 100 µM | TGI [36]: > 100 µM | TGI [37]: > 100 µM | TGI [38]: > 100 µM | TGI [39]: > 100 µM | TGI [40]: > 100 µM | TGI [41]: > 100 µM | TGI [42]: > 100 µM | TGI [54]: > 100 µM | TGI [43]: > 100 µM | TGI [44]: > 100 µM | TGI [45]: > 100 µM | TGI [46]: > 100 µM | TGI [47]: > 100 µM | TGI [55]: > 100 µM | TGI [48]: > 100 µM | TGI [49]: > 100 µM | TGI [50]: > 100 µM | TGI [56]: > 100 µM | TGI [51]: > 100 µM

c1ccc(CSc2ccccc2CN2CCN(Cc3ccccc3SCc3ccccc3)CCN(Cc3ccccc3SCc3ccccc3)CC2)cc1
TGI [1]: 5.19 µM | TGI [2]: 3.02 µM | TGI [3]: 2.67 µM | TGI [4]: 10.7 µM | TGI [52]: 7.18 µM | TGI [5]: 3.82 µM | TGI [6]: 3.16 µM | TGI [57]: 1.76 µM | TGI [7]: 6.26 µM | TGI [8]: 3.32 µM | TGI [9]: 3.01 µM | TGI [10]: 2.87 µM | TGI [11]: 4.61 µM | TGI [58]: 3.46 µM | TGI [12]: 3.38 µM | TGI [13]: 5.72 µM | TGI [14]: 2.03 µM | TGI [15]: 2 µM | TGI [16]: 3.23 µM | TGI [17]: 2.95 µM | TGI [19]: 3.54 µM | TGI [20]: 2.21 µM | TGI [21]: 10.1 µM | TGI [22]: 2.42 µM | TGI [23]: 3.36 µM | TGI [24]: 10.3 µM | TGI [25]: 3.56 µM | TGI [27]: 4.81 µM | TGI [28]: 2.45 µM | TGI [29]: 2.93 µM | TGI [30]: 6.34 µM | TGI [53]: 18 µM | TGI [31]: 2.83 µM | TGI [32]: 6.04 µM | TGI [33]: 3.3 µM | TGI [34]: 5.81 µM | TGI [35]: > 100 µM | TGI [36]: 2.67 µM | TGI [59]: 4.1 µM | TGI [37]: 2.39 µM | TGI [38]: 12.3 µM | TGI [39]: 4.06 µM | TGI [40]: 11.3 µM | TGI [41]: 5.26 µM | TGI [54]: 2.08 µM | TGI [43]: 12 µM | TGI [44]: 2.52 µM | TGI [45]: 2.94 µM | TGI [46]: 6.85 µM | TGI [47]: 1.82 µM | TGI [55]: 7.66 µM | TGI [48]: 3.39 µM | TGI [49]: 2.75 µM | TGI [50]: 69.2 µM | TGI [56]: 4.18 µM
